Data taken from PMC12194779, “Synergistic Insecticidal Activity of Plant Volatile Compounds: Impact on Neurotransmission and Detoxification Enzymes in Sitophilus zeamais” (Insects, 2025).
Values joined by “and” are separate entries in the source; they are usually repeats but may differ in a detail not shown here. Equal values may be shown once. Read-outs that look alike come from different tables or passages of the source.

How the values were obtained:
[1] = cited from earlier work
Sitophilus zeamais [2] = experiment: whole plant or invertebrate; settings: Sitophilus zeamais
Protocol: (§1) The insects used in this study were Sitophilus zeamais Motschulsky (Coleoptera: Curculionidae), identified by the Instituto Colombiano Agropecuario (ICA) under report number R3823M0000425. […] The adult insects used in all the experiments were 6 to 10 days post-emergence.
The treated disks were affixed to the inner surface of the screw cap of 22 mL glass vials. […] All treatments were performed in two independent experiments, each with five replicates.
(§2) Mixtures predicted by the RSM were prepared based on mole fractions. […] Four replicates were performed for each treatment and control across two independent experimental runs.
Dose reduction indices (DRIs) were also calculated to estimate how much the dose of each compound in a synergistic combination could be reduced to achieve a 50% effect (Equation (4)). DRIs were interpreted as favorable when >1, neutral at 1, and unfavorable when <1. Values above the log DRI = 0 line indicate favorable dose reductions.(4) (IRD)i=CL50i(fax)i/(1−(fax)i)^1/mi/(D)i

Sitophilus zeamais [3] = assay type: in vivo; settings: for Contact Toxicity LD50 (95% FL) / Contact Toxicity LD90 (95% FL): topical, 24 h after exposure
Protocol: as §1
Groups of 10 insects, previously placed in Petri dishes, were immobilized by exposure to low temperatures (0 °C). An initial dose of 50.0 µg per adult was applied topically to the dorsal thorax of each insect using aliquots of 0.20 µL from 0.25 mg/µL solutions in n-hexane. […] All treatments were performed in two independent experiments, each with four replicates. Insect mortality was assessed after 24 h, and mortality percentages were calculated using Abbott’s correction formula (Equation (1)).
as §2
Dose reduction indices (DRIs) were also calculated to estimate how much the dose of each compound in a synergistic combination could be reduced to achieve a 50% effect (Equation (4)). DRIs were interpreted as favorable when >1, neutral at 1, and unfavorable when <1.

S. zeamais [4] = tested on: S. zeamais; parameters: method as in PMID 21173724, PMID 22236213; settings: cited from earlier work
S. zeamais [5] = settings: 7-day exposure; cited from earlier work
[6] = tested on: CAT activity in S. oryzae; parameters: method as in PMID 31027573; settings: cited from earlier work
AChE of S. zeamais = experiment: AChE activity assay (modified Ellman) with S. zeamais protein extract; assay type: biochemical, Sitophilus zeamais; parameters: key to AChE Effect Inhibitor Type: C: competitive inhibitor; NC: non-competitive inhibitor
Protocol: The compounds and mixtures evaluated in the in vitro assays were prepared in the same buffer supplemented with 0.5% (v/v) Triton X-100 (Sigma-Aldrich®, Saint Louis, MO, USA).
The supernatant was filtered, and 20 mM benzamidine was added. The extracts were stored in 5 mL aliquots at −20 °C. Preliminary assays were performed to quantify the specific activity of AChE (0.02–1.00 U/mL), GST (0.1–0.8 U/mL), and CAT (0.1–25 U/mL), and to optimize assay conditions (enzyme dilution: 1/8 to 1% v/v; substrate concentrations: 2 × km or within assay linearity).
Then, 50 µL of DTNB and 50 µL of ATChI were added. […] Inhibition percentages were calculated using Equation (5).

[7] = tested on: glutathione S-transferase (GST) activity in S. zeamais; experiment: GST activity assay (modified Habig) with S. zeamais protein extract; assay type: biochemical, Sitophilus zeamais; settings: 120 mg/L
Protocol: Enzymatic assays were performed in the assay buffer, consisting of 0.1 M potassium phosphate buffer (pH 7.2). The compounds and mixtures evaluated in the in vitro assays were prepared in the same buffer supplemented with 0.5% (v/v) Triton X-100 (Sigma-Aldrich®, Saint Louis, MO, USA).
A modified version of the method described by Oviedo et al. was used. Adults of S. zeamais (8 g; ~3125 insects) were frozen in liquid nitrogen, homogenized in a 1:10 ratio with assay buffer, and centrifuged at 13,000× g for 60 min at 4 °C. The supernatant was filtered, and 20 mM benzamidine was added. The extracts were stored in 5 mL aliquots at −20 °C. Preliminary assays were performed to quantify the specific activity of AChE (0.02–1.00 U/mL), GST (0.1–0.8 U/mL), and CAT (0.1–25 U/mL), and to optimize assay conditions (enzyme dilution: 1/8 to 1% v/v; substrate concentrations: 2 × km or within assay linearity). Each experiment was performed independently three times, with three technical replicates per experiment.
A modified version of Habig’s method was used. The protein extract (50 µL; 0.59 U/mL) was incubated with 50 µL of the compound or mixture (120 mg/L), followed by 50 µL each of CDNB and reduced glutathione (GSH). Kinetic absorbance was measured at 340 nm for 8 min. Blanks (without substrate) and quercetin (positive control) were included. Inhibition (%) was calculated using Equation (5), and treatment differences were evaluated via parametric ANOVA (α = 0.05) in GraphPad Prism 8.0.2 [42, 43]. Each experiment was performed independently three times, with three technical replicates per experiment.(5) % Inhibition=1−Am−AB/AC ×100 where Am is the absorbance of the sample, AB is the absorbance of the blank, and AC is the absorbance of the negative control.

In the case of `CC1(C)C(C=C(Cl)Cl)C1C(=O)OCc1cccc(Oc2ccccc2)c1` (stereo not shown) [permethrin], the “reported LD50” value [1] is given as 42.75 µg/adult.
For `CC1(C)[C@H](C(=O)O[C@H](C#N)c2cccc(Oc3ccccc3)c2)[C@@H]1C=C(Br)Br` [deltamethrin], the mortality ([1]; 1 ppm, after 14 days) is given as 45%.
In the case of `C=C(C)[C@@H]1CC=C(C)C(=O)C1` [Compound C4, R-(−)-Carvone], the LC50 (Sitophilus zeamais [2]; in Homo sapiens, 24 h, read-out: Fumigant Toxicity LC50 (95% FL)) is reported as 1.42 µg/mL and 9.48 µM, the EC90 (Sitophilus zeamais [2]; in Homo sapiens, 24 h, read-out: Fumigant Toxicity LC90 (95% FL)) is reported as 2.17 µg/mL and 14.4 µM and the LC50 (Sitophilus zeamais [2]; read-out: LC50 values, fumigant activity (Figure 3)) is reported as 1.42 µg/mL. The “Contact Toxicity LD50 (95% FL)” value (Sitophilus zeamais [3]) was 16.89 (14.56–19.35) µg/Adult, the “Contact Toxicity LD90 (95% FL)” value (Sitophilus zeamais [3]) was 28.45 (24.99–34.24) µg/Adult and the “Contact LD50 previously reported for 7-day assays” value (S. zeamais [4]) was 2.79 µg/adult. For the same compound, the “Fumigant LC50 reported in 7-day exposure assays” value (S. zeamais [5]) was 2.76 µg/mL.
For `CC(C)[C@@H]1CC[C@@H](C)CC1=O` [menthone], the “reduction of CAT activity” value [6] is given as ~ 30%.
With `CC(C)=CCC[C@@H](C)CC=O` [Compound C33, Citronellal] the “Contact Toxicity LD50i (LC-95%)” value (Sitophilus zeamais [3]; mixtures and their components (Table 3)) was 36.94 µg/Adult, the “Contact Toxicity LD50 (95% FL)” value (Sitophilus zeamais [3]) was 36.94 (34.60–39.14) µg/Adult and the “Contact Toxicity LD90 (95% FL)” value (Sitophilus zeamais [3]) was 50.64 (47.46–55.39) µg/Adult. The “AChE inhibition type (Lineweaver–Burk plots), in words” value (AChE of S. zeamais) was “competitive inhibition”, the “AChE Effect Inhibitor Type” value (AChE of S. zeamais; Lineweaver–Burk) was “C” and the “AChE Effect IC50 ± SD” value (AChE of S. zeamais; S. zeamais protein extract) was 7.72 ± 0.78 µg/mL. The Ki (AChE of S. zeamais; S. zeamais protein extract, read-out: AChE Effect ki ± SD (inhibitory constant)) was 199 ± 3.51 µM, the “GST Inhibition λ340 (%)” value [7] was 4.3% and the “Contact LD50 previously reported for 7-day assays” value (S. zeamais [4]) was 8.54 µg/adult.
